Measurements reported in patent US10478421B1, “Sortilin binding compounds, formulations, and uses thereof” (University of Florida, priority 2016, dated 2019).

Tests used:
hsortilin = biological target: T1, hsortilin (Homo sapiens, UniProt Q99523); assay: Liposome floatation assay of hsortilin binding to PIP3 liposomes; conditions: increasing concentrations of cpd984
T1 construct: Human sortilin (hsortilin) (Ser78-Asn755) with C-terminal 6-His tag; purchased R&D Systems, Inc. (Minneapolis, Minn.)
T1 sequence (Q99523 78-755): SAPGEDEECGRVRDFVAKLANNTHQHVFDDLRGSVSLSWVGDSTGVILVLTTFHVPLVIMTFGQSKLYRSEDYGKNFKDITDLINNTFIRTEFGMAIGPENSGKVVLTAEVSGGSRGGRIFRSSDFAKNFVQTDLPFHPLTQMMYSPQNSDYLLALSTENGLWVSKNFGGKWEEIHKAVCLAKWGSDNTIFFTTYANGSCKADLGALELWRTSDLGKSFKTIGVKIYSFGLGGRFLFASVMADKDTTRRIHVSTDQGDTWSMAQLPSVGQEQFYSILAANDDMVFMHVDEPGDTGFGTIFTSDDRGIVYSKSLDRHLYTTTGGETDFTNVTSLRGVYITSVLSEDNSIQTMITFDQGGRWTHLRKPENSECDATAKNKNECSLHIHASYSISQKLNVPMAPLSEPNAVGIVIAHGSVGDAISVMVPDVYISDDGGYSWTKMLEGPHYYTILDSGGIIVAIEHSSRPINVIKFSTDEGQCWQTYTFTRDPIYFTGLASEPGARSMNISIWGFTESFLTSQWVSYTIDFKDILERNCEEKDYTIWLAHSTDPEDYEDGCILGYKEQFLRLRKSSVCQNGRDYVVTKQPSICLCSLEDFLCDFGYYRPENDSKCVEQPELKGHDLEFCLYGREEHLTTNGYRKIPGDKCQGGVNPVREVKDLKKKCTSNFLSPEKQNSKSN
Experimental: Unilamellar liposomes containing specific lipid compositions were produced using lipids dissolved in chloroform that were mixed according to mole percentages of 2.6 μmoles total phospholipid. Lipids were dried and desiccated overnight followed by incubation with PBS (2.6 ml) for 1 h. Lipids were resuspended by vortexing and disrupted by sonication for 30 min. To measure binding, a liposome floatation assay was used by adding concentrations 50 nM or 100 nM hsortilin to liposomes (150 μl) containing 5% PIP3, 20% PE and 75% PC; 10% PIP3, 20% PE, 70% PC; or 0% PIP3, 80% PC, and 20% PE as described. Samples containing 50 nM or 100 nM protein and liposomes in the presence and absence of cpd984 were incubated for 10 min at 30° C. and 630 μl of 1.65 M sucrose/PBS was added. Samples were overlaid with 630 μl of 0.75 M sucrose/PBS, and PBS to the top of the tube and centrifuged (200,000×g, 90 min, 4° C.), and floated liposomes recovered from the 0.75 M sucrose layer. Liposomes at the interface of the top and second fraction were recovered and diluted in 2 ml of PBS and re-isolated by centrifugation (16,000×g, 20 min, 4° C.). 50 μl PBS and 20 μl 5×SDS sample buffer was added to the final liposome pellet. Bound proteins were resolved by SDS-PAGE and detected by western immunoblotting following transfer to PVDF membranes.

McA cells = assay: Insulin signaling (pY-IRβ, p-AKT S473) by immunoblotting in McA cells; assay type: cell-based, rat; conditions: 10 μM, 18 h, then 250 nM insulin
Experimental: (FIG. 4A) McA cell lines with variable sortilin KD were incubated with vehicle (black bars) or with 10 μM cpd984 (gray bars) for 18 h (3-100 mm plates per condition). […] VLDL was isolated from media of each plate and VLDL-B100 was quantified by immuno slot blotting. Results presented are averages of the 3 plates ±S.D. (FIG. 4B) McA cells were incubated for 18 h in 1% BSA/DMEM±10 μM cpd984. McA cells were then stimulated with a time course of 250 nM insulin (0, 5, 10 and 15 min). IRβ and AKT, pY-IRβ, and p-AKT (S473) were evaluated by immunoblotting using protein and phosphospecific antibodies.
McA cell lysates were prepared and denatured proteins were separated by SDS-PAGE as described previously. Following electrophoretic transfer to PVDF membranes and blocking non-specific binding, membranes were incubated with primary antibodies overnight at 4° C. in blocking buffer. Antibody binding was detected by incubation for 1-2 h at room temperature with species specific secondary HRP-linked antibodies and developed using Amersham™ Prime reagent (GE Healthcare). Insulin signaling to IRβ and AKT were evaluated using nitrocellulose membranes (Bio-Rad) and phosphospecific (pY, p-AKT(Ser473) and mass specific antibodies. Chemiluminescence was measured using the ChemiDocXRS+system (Bio-Rad) and band intensities quantified using Image Lab 3.0.1 software (Bio-Rad).

LDLR = assay: Cellular LDLR by immunoblot in McA cells; assay type: cell-based, rat; conditions: 10 μM, 18 h, 1% BSA/DMEM
Experimental: McA cells were incubated in 1% BSA/DMEM with DMSO, 541 (10 μM) or 984 (10 μM) for 18 h. Cellular proteins were extracted and analyzed by IB for LDLR (LS-C146979, 1:2000) (FIG. 5A) or PCSK9 (Ab125251, 1:2000) (FIG. 5B) using HRP-linked secondary antibody and ECL detection. Loading controls included β-ACTIN (Rockland ph600-401-886) and GAPDH (cb1001mAb (6C5). Band intensities were measured using ChemiDocXRS+ system and evaluated using ImageLab 5.1 software (BioRad). Results are average of triplicates ±S.D. PCSK9 is a known ligand for sortilin where sortilin acts as a chaperone for PCSK9 secretion.

**Q.** How did the “effect on sortilin binding to PIP3 liposomes” value (hsortilin) turn out when `CN1CCC[C@H]1C(=O)Nc1cccc(NC(=O)CCc2ccccc2)c1` [cpd984, (2S)-1-methyl-N-{3-[(3-phenylpropanoyl)-amino]phenyl} pyrrolidine-2-carboxamide] was run?
**A.** increased sortilin binding to PIP3 liposomes

**Q.** And the “effect on insulin sensitivity (insulin-dependent pY of IRβ, pAKT)” value (McA cells)?
**A.** did not alter insulin sensitivity

**Q.** What about the “effect on LDL receptors” value (LDLR) of the same compound?
**A.** increase in LDL receptors
